{"source": "patent US11071746B2", "about": "“Compositions and methods for protecting organs from ischemia/reperfusion injury associated with transplantation” (THE TRUSTEES OF THE UNIVERSITY OF PENNSYLVANIA, priority 2016, dated 2021)", "key": {"IL-1β": {"system": "IL-1β", "experiment": "qRT-PCR gene expression in EVLP lung tissues: IL-1β", "set-up": "species or system human", "settings": "EVLP #4, treated right lung vs vehicle-treated lung", "description": "(§1) GENE EXPRESSION LEVEL OF THE NRF2-REGULATED STRESS RESPONSE ENZYME HO-1: In a separate study (EVLP #4), SDG (LGM2605) was instilled only in one lung (right) while vehicle control was instilled in the contralateral lung (FIG. 4). The concentration of the drug (200 mg/lung) was kept the same as above. […] A drop in the left lung may reflect action of SDG (LGM2605) on that lung through the perfusate (we have shown above that some of the drug appears into the systemic circulation).\n(§2) Our findings confirm that SDG decreases inflammatory parameters in human lung tissues during ischemia."}, "COX-2": {"system": "COX-2", "experiment": "qRT-PCR gene expression in EVLP lung tissues: COX-2", "settings": "aerosolized instillation, human EVLP lung tissues", "description": "as §1\nGENE EXPRESSION LEVELS OF THE COX-2 (AN ENZYME PROMOTING INFLAMMATION AND PAIN) DECREASE IN HUMAN LUNG (EVLP) TISSUES TREATED WITH LGM2605 (SDG): Cyclo-oxygenease-2 is an enzyme responsible for the formation of prostanoids such as thromboxane and prostanglandins. Pharmacological inhibition of COX can provide relief from symptoms of inflammation and pain. […] A drop in the vehicle-treated lung may reflect action of the drug via the perfusate (systemic circulation—FIG. 8)."}, "GSTMu1": {"system": "GSTMu1", "experiment": "qRT-PCR gene expression in EVLP lung tissues: GSTM1", "set-up": "species or system human", "settings": "EVLP #4, treated lung vs vehicle-treated lung, 120' sampling time", "description": "as §1\n(§3) GENE EXPRESSION LEVELS OF THE NRF2-REGULATED ANTIOXIDANT ENZYMES NQO1 AND GSTM1 INCREASE IN HUMAN LUNG (EVLP) TISSUES TREATED WITH LGM2605 (SDG): Nrf2 is a transcription factor that regulates the expression of antioxidant and cytoprotective genes such as NQO-1 and GSTMu1. […] Our findings confirm that SDG boosts endogenous antioxidant defenses in human lung tissues during ischemia (FIG. 6)."}, "human donor lungs": {"system": "human donor lungs", "experiment": "Ex vivo functional assessment (oxygenation, compliance) of EVLP human donor lungs", "settings": "aerosolized drug, EVLP #3 human lung", "description": "(§4) Donor lungs were offered to our lung-transplantation program through our local organ procurement organization (Gift of Life) and were de-identified. Donor lungs that met the entry criteria (i.e., non-transplantable) were retrieved, delivered to our center by means of standard cold-storage transport in a low-potassium dextran solution (Perfadex, Vitrolife), and perfused in the EVLP system for 3-6 hours. Lungs were considered suitable for transplantation if during EVLP the PO2:FIO2 ratio—that is, the partial pressure of oxygen ex vivo (PO2) to the fraction of inspired oxygen (FIO2)—was 350 mm Hg or more and if deterioration from baseline levels of all three physiological measurements (pulmonary vascular resistance, dynamic compliance, and peak inspiratory pressure) was less than 15% while the lungs were ventilated with the use of a tidal volume of 7 ml per kilogram of donor body weight and a rate of 7 breaths per minute during the perfusion period (FIG. 1)\n(§5) Technique: The acellular EVLP technique has been described in detail elsewhere (Cypel et al., N Engl J Med. 2011 Apr. 14; 364(15):1431-40). After 3-6 hours of EVLP, the lungs were cooled to 4° C. over a period of 10 minutes. Thereafter, perfusion and ventilation were stopped (with FIO2 changed to 0.21 for the purpose of lung storage), and the trachea was clamped at full inspiration to maintain the lungs in a state of inflation. The lungs were then stored at 4° C. in Perfadex until transplantation.\nEx Vivo Functional Assessment: For the functional assessment ex vivo, tidal volume was set at 10 ml per kilogram of donor body weight and 10 breaths per minute, with FIO2 at 1.0. Lung function was evaluated hourly during EVLP according to the following calculations: PO2=[left atrial PO2−pulmonary-artery PO2 (in mm Hg)], and pulmonary vascular resistance=[(pulmonary-artery pressure-left atrial pressure)×80]÷pulmonary-artery flow (in dynes·seconds·cm^−5), dynamic compliance (in milliliters per centimeter of water), and peak inspiratory pressure (in centimeters of water). […]"}, "IL-6": {"system": "IL-6", "experiment": "qRT-PCR gene expression in EVLP lung tissues: IL-6", "set-up": "species or system human", "settings": "EVLP #4, treated right lung vs vehicle-treated lung", "description": "as §1, §2"}, "hemeoxygenase-1 (HO-1)": {"system": "hemeoxygenase-1 (HO-1)", "experiment": "qRT-PCR gene expression in EVLP lung tissues: HO-1", "set-up": "species or system human", "settings": "EVLP #4, 200 mg/lung instilled in right lung, vehicle in contralateral lung", "description": "as §1"}, "NQO-1": {"system": "NQO-1", "experiment": "qRT-PCR gene expression in EVLP lung tissues: NQO1", "set-up": "species or system human", "settings": "EVLP #4, treated lung vs vehicle-treated lung, 120' sampling time", "description": "as §1, §3"}, "[1]": {"experiment": "LC/MS/MS drug levels in lung tissue, BALF and perfusate during ex vivo lung perfusion (EVLP)", "set-up": "species or system human", "description": "as §4, §5\nLGM2605 (SDG) ACCUMULATES IN HUMAN LUNG TISSUES: Using LC/MS/MS analytical methodologies, we determined synthetic SDG (LGM2605) levels in left and right lung tissues, in bronchoalveolar lavage fluid (BALF) and perfusate fluid over multiple time points spanning from 30 minutes post aerosolized instillation of 200 mg drug/lung, to 360 minutes (FIG. 2). Of importance is that aerosolized SDG (LGM2605) (i.e, instilled in airways), leaks into the systemic circulation and can be detected in the perfusate for at least 240 minutes. Importantly, levels in lung tissue biopsies show a peak of drug by 120 minutes, persisting for up to 240 minutes. Additionally, levels in BALF persist beyond 360 min."}, "[2]": {"settings": "aerosolized instillation of 200 mg drug/lung, human EVLP lungs, lung tissue biopsies"}}, "data": [{"molecule": "COc1cc(C[C@@H](CO[C@@H]2O[C@H](CO)[C@@H](O)[C@H](O)[C@H]2O)[C@H](CO[C@@H]2O[C@H](CO)[C@@H](O)[C@H](O)[C@H]2O)Cc2ccc(O)c(OC)c2)ccc1O", "note": "[LGM2605, secoisolariciresinol diglucoside]", "values": [{"measurement": "IL-1β gene expression change", "setting": "IL-1β", "value": "significantly reduced"}, {"measurement": "COX-2 gene expression change", "setting": "COX-2", "value": "blocks entirely"}, {"measurement": "time to entire block of COX-2 expression after instillation", "setting": "COX-2", "value": "≤ 50", "unit": "min"}, {"measurement": "GSTMu1 gene expression change", "setting": "GSTMu1", "value": "robust increase"}, {"measurement": "dynamic compliance", "setting": "human donor lungs", "value": "improving"}, {"measurement": "static compliance", "setting": "human donor lungs", "value": "improving"}, {"measurement": "P/F ratio (oxygenation) after treatment", "setting": "human donor lungs; improved from 200 before drug", "value": "> 350"}, {"measurement": "IL-6 gene expression change", "setting": "IL-6", "value": "significantly reduced"}, {"measurement": "HO-1 gene expression change", "setting": "hemeoxygenase-1 (HO-1)", "value": "drop"}, {"measurement": "NQO-1 gene expression change", "setting": "NQO-1", "value": "robust increase"}, {"measurement": "persistence of drug levels in BALF", "setting": "[1]; aerosolized instillation of 200 mg drug/lung, human EVLP lungs, BALF", "value": "> 360", "unit": "min"}, {"measurement": "persistence of drug levels in lung tissue biopsies", "setting": "[1]; [2]", "value": "up to 240 minutes"}, {"measurement": "time of peak of drug in lung tissue biopsies", "setting": "[1]; [2]", "value": "≤ 120", "unit": "min"}, {"measurement": "time drug can be detected in the perfusate", "setting": "[1]; aerosolized instillation of 200 mg drug/lung, human EVLP lungs, perfusate", "value": "at least 240 minutes"}, {"measurement": "accumulation in lung", "setting": "[1]; regardless of route of delivery (inhaled or intravenous)", "value": "accumulates in lung"}]}]}
